According to PubChem BioAssay AID256 (DTP/NCI, 2004):
Several values for one entry are separate records, joined by “and”; a condition that tells them apart may be missing. Equal entries are not always repeated. Toxic doses and inconclusive results are not listed.

System: CD2F1 mice, L1210 leukemia ip, survival T/C
Test: NCI In Vivo Anticancer Drug Screen. Data for tumor model L1210 Leukemia (intraperitoneal) in CD2F1 (CDF1) mice
Settings: higher = longer survival
Outline: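 Compound-dosed mice with transplantable tumor versus matched vehicle controls; endpoint ratio T/C reported.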

[1] = endpoint: mean survival time, dose: 100.0 mg/kg/injection, schedule: Q04DX003 (ip), vehicle: saline with Tween-80
[2] = endpoint: mean survival time, dose: 200.0 mg/kg/injection, schedule: Q04DX003 (ip), vehicle: saline with Tween-80
[3] = endpoint: mean survival time, dose: 400.0 mg/kg/injection, schedule: Q04DX003 (ip), vehicle: saline with Tween-80

O=C(O)CC(=O)O.[NH-]CCC1CCCC[N-]1.[Pt+2] (centres undefined)
T/C (endpoint: mean survival time, dose: 3.13 mg/kg/injection, schedule: Q04DX003 (ip), vehicle: distilled water + Tween-80): 111 % of control | T/C (endpoint: mean survival time, dose: 6.25 mg/kg/injection, schedule: Q04DX003 (ip), vehicle: distilled water + Tween-80): 108 % of control | T/C (endpoint: mean survival time, dose: 12.5 mg/kg/injection, schedule: Q04DX003 (ip), vehicle: distilled water + Tween-80): 114 % of control | T/C (endpoint: mean survival time, dose: 25.0 mg/kg/injection, schedule: Q04DX003 (ip), vehicle: distilled water + Tween-80): 114 % of control | T/C (endpoint: mean survival time, dose: 25.0 mg/kg/injection, schedule: Q04DX003 (ip), vehicle: water): 108 % of control | T/C (endpoint: mean survival time, dose: 50.0 mg/kg/injection, schedule: Q04DX003 (ip), vehicle: distilled water + Tween-80): 113 % of control | T/C (endpoint: mean survival time, dose: 50.0 mg/kg/injection, schedule: Q04DX003 (ip), vehicle: water): 120 % of control

CCCCCCCCCCC(N)P(=O)(O)O (centres undefined)
T/C (endpoint: mean survival time, dose: 25.0 mg/kg/injection, schedule: Q04DX003 (ip), vehicle: saline with Tween-80): 91 % of control | T/C (endpoint: mean survival time, dose: 50.0 mg/kg/injection, schedule: Q04DX003 (ip), vehicle: saline with Tween-80): 91 % of control

O=S(=O)(F)c1ccc(C[P+](c2ccccc2)(c2ccccc2)c2ccccc2)c(Cl)c1
T/C (endpoint: mean survival time, dose: 18.8 mg/kg/injection, schedule: Q01DX009 (ip), vehicle: saline): 103 % of control | T/C (endpoint: mean survival time, dose: 18.8 mg/kg/injection, schedule: Q04DX003 (ip), vehicle: saline): 114 % of control | T/C (endpoint: mean survival time, dose: 37.5 mg/kg/injection, schedule: Q01DX009 (ip), vehicle: saline): 100 % of control | T/C (endpoint: mean survival time, dose: 37.5 mg/kg/injection, schedule: Q04DX003 (ip), vehicle: saline): 116 % of control | T/C (endpoint: mean survival time, dose: 75.0 mg/kg/injection, schedule: Q01DX001 (ip), vehicle: saline): 103 % of control | T/C (endpoint: mean survival time, dose: 75.0 mg/kg/injection, schedule: Q04DX003 (ip), vehicle: saline): 112 % of control

CCN=C(N)c1ncnnc1N
T/C (endpoint: mean survival time, dose: 100.0 mg/kg/injection, schedule: Q01DX001 (ip), vehicle: carboxymethylcellulose (CMC)): 104 % of control | T/C (endpoint: mean survival time, dose: 200.0 mg/kg/injection, schedule: Q01DX001 (ip), vehicle: carboxymethylcellulose (CMC)): 102 % of control | T/C (endpoint: mean survival time, dose: 400.0 mg/kg/injection, schedule: Q01DX001 (ip), vehicle: carboxymethylcellulose (CMC)): 102 % of control

O=C(O)C1CCCN1C(=O)c1ccccc1 (centres undefined)
T/C [1]: 103 % of control | T/C [2]: 93 % of control | T/C [3]: 98 % of control

CNCCC(=N)C(=N)CCNC
T/C (endpoint: mean survival time, dose: 100.0 mg/kg/injection, schedule: Q04DX002 (ip), vehicle: saline): 111 % of control | T/C (endpoint: mean survival time, dose: 200.0 mg/kg/injection, schedule: Q04DX002 (ip), vehicle: saline): 106 % of control | T/C (endpoint: mean survival time, dose: 400.0 mg/kg/injection, schedule: Q04DX002 (ip), vehicle: saline): 103 % of control

CNC(=O)OCc1c(COC(=O)NC)c(-c2ccc(Cl)c(Cl)c2)n2c1Cc1ccccc1C2
T/C (endpoint: median survival time, dose: 12.5 mg/kg/injection, schedule: Q01DX009 (ip), vehicle: distilled water + Tween-80): 122 % of control | T/C (endpoint: median survival time, dose: 25.0 mg/kg/injection, schedule: Q01DX009 (ip), vehicle: distilled water + Tween-80): 122 % of control | T/C (endpoint: median survival time, dose: 50.0 mg/kg/injection, schedule: Q01DX009 (ip), vehicle: distilled water + Tween-80): 157 % of control | T/C (endpoint: median survival time, dose: 100.0 mg/kg/injection, schedule: Q01DX009 (ip), vehicle: distilled water + Tween-80): 164 % of control and 173 % of control | T/C (endpoint: median survival time, dose: 200.0 mg/kg/injection, schedule: Q01DX009 (ip), vehicle: distilled water + Tween-80): 124 % of control

CCN(CC)c1ccc(N=Nc2c(C)nc(N)nc2-c2ccccc2)cc1
T/C (endpoint: mean survival time, dose: 150.0 mg/kg/injection, schedule: Q01DX001 (ip), vehicle: saline): 97 % of control

Nc1ccn([C@@H](C=O)C[C@@H](C=O)CO)c(=O)n1
T/C (endpoint: median survival time, dose: 25.0 mg/kg/injection, schedule: Q01DX009 (ip), vehicle: saline): 107 % of control | T/C (endpoint: median survival time, dose: 50.0 mg/kg/injection, schedule: Q01DX009 (ip), vehicle: saline): 121 % of control and 112 % of control | T/C (endpoint: median survival time, dose: 100.0 mg/kg/injection, schedule: Q01DX009 (ip), vehicle: saline): 121 % of control and 124 % of control | T/C (endpoint: median survival time, dose: 400.0 mg/kg/injection, schedule: Q01DX009 (ip), vehicle: saline): 153 % of control and 161 % of control

C=CN1CCCC1=O
T/C [1]: 98 % of control | T/C [2]: 101 % of control | T/C [3]: 95 % of control | T/C (endpoint: mean survival time, dose: 1400.0 mg/kg/injection, schedule: Q01DX001 (ip), vehicle: saline): 101 % of control | T/C (endpoint: mean survival time, dose: 1600.0 mg/kg/injection, schedule: Q01DX001 (ip), vehicle: saline): 110 % of control | T/C (endpoint: mean survival time, dose: 1800.0 mg/kg/injection, schedule: Q01DX001 (ip), vehicle: saline): 117 % of control | T/C (endpoint: mean survival time, dose: 2000.0 mg/kg/injection, schedule: Q01DX001 (ip), vehicle: saline): 114 % of control | T/C (endpoint: median survival time, dose: 1.9 grams/kg/injection, schedule: Q01DX001 (iv), vehicle: saline): 100 % of control | T/C (endpoint: median survival time, dose: 1.9 grams/kg/injection, schedule: Q01DX005 (iv), vehicle: saline): 112 % of control | T/C (endpoint: median survival time, dose: 1.9 grams/kg/injection, schedule: Q03HX008 (ip), vehicle: saline): 112 % of control | T/C (endpoint: median survival time, dose: 1.9 grams/kg/injection, schedule: Q03HX016 (ip), vehicle: saline): 106 % of control | T/C (endpoint: median survival time, dose: 1.9 grams/kg/injection, schedule: Q03HX024 (ip), vehicle: saline): 112 % of control | T/C (endpoint: median survival time, dose: 1.9 grams/kg/injection, schedule: Q04DX003 (iv), vehicle: saline): 112 % of control | T/C (endpoint: median survival time, dose: 3.8 grams/kg/injection, schedule: Q01DX001 (ip), vehicle: saline): 112 % of control | T/C (endpoint: median survival time, dose: 3.8 grams/kg/injection, schedule: Q01DX001 (iv), vehicle: saline): 100 % of control | T/C (endpoint: median survival time, dose: 3.8 grams/kg/injection, schedule: Q01DX005 (ip), vehicle: saline): 100 % of control | T/C (endpoint: median survival time, dose: 3.8 grams/kg/injection, schedule: Q01DX005 (iv), vehicle: saline): 100 % of control | T/C (endpoint: median survival time, dose: 3.8 grams/kg/injection, schedule: Q01DX009 (ip), vehicle: saline): 100 % of control | T/C (endpoint: median survival time, dose: 3.8 grams/kg/injection, schedule: Q03HX008 (ip), vehicle: saline): 112 % of control | T/C (endpoint: median survival time, dose: 3.8 grams/kg/injection, schedule: Q03HX016 (ip), vehicle: saline): 112 % of control | T/C (endpoint: median survival time, dose: 3.8 grams/kg/injection, schedule: Q03HX024 (ip), vehicle: saline): 112 % of control | T/C (endpoint: median survival time, dose: 3.8 grams/kg/injection, schedule: Q04DX003 (ip), vehicle: saline): 106 % of control | T/C (endpoint: median survival time, dose: 3.8 grams/kg/injection, schedule: Q04DX003 (iv), vehicle: saline): 112 % of control | T/C (endpoint: median survival time, dose: 3.8 grams/kg/injection, schedule: Q08DX002 (ip), vehicle: saline): 106 % of control | T/C (endpoint: median survival time, dose: 7.5 grams/kg/injection, schedule: Q01DX001 (ip), vehicle: saline): 100 % of control | T/C (endpoint: median survival time, dose: 7.5 grams/kg/injection, schedule: Q01DX001 (iv), vehicle: saline): 100 % of control | T/C (endpoint: median survival time, dose: 7.5 grams/kg/injection, schedule: Q01DX005 (ip), vehicle: saline): 112 % of control | T/C (endpoint: median survival time, dose: 7.5 grams/kg/injection, schedule: Q01DX005 (iv), vehicle: saline): 106 % of control | T/C (endpoint: median survival time, dose: 7.5 grams/kg/injection, schedule: Q01DX009 (ip), vehicle: saline): 100 % of control | T/C (endpoint: median survival time, dose: 7.5 grams/kg/injection, schedule: Q03HX008 (ip), vehicle: saline): 112 % of control | T/C (endpoint: median survival time, dose: 7.5 grams/kg/injection, schedule: Q04DX003 (ip), vehicle: saline): 100 % of control | T/C (endpoint: median survival time, dose: 7.5 grams/kg/injection, schedule: Q04DX003 (iv), vehicle: saline): 106 % of control | T/C (endpoint: median survival time, dose: 7.5 grams/kg/injection, schedule: Q08DX002 (ip), vehicle: saline): 112 % of control | T/C (endpoint: median survival time, dose: 15.0 grams/kg/injection, schedule: Q01DX001 (ip), vehicle: saline): 112 % of control | T/C (endpoint: median survival time, dose: 15.0 grams/kg/injection, schedule: Q01DX009 (ip), vehicle: saline): 118 % of control | T/C (endpoint: median survival time, dose: 15.0 grams/kg/injection, schedule: Q04DX003 (ip), vehicle: saline): 112 % of control | T/C (endpoint: median survival time, dose: 15.0 grams/kg/injection, schedule: Q08DX002 (ip), vehicle: saline): 106 % of control

CCCCCCCCCCC[n+]1ccc(C#N)cc1
T/C (endpoint: mean survival time, dose: 9.38 mg/kg/injection, schedule: Q01DX001 (ip), vehicle: saline): 105 % of control | T/C (endpoint: mean survival time, dose: 18.75 mg/kg/injection, schedule: Q01DX001 (ip), vehicle: saline): 98 % of control

COC1CC2C=C(C)/C=C/C=C/C(=O)NC(c3ccccc3)C/C=C/CCC(O)CC(=O)C2=C1O (centres undefined)
T/C (endpoint: median survival time, dose: 3.12 mg/kg/injection, schedule: Q01DX009 (ip), vehicle: Klucel (hydroxypropylcellulose) (HPC)): 108 % of control | T/C (endpoint: median survival time, dose: 6.25 mg/kg/injection, schedule: Q01DX009 (ip), vehicle: Klucel (hydroxypropylcellulose) (HPC)): 111 % of control | T/C (endpoint: median survival time, dose: 12.5 mg/kg/injection, schedule: Q01DX009 (ip), vehicle: Klucel (hydroxypropylcellulose) (HPC)): 101 % of control

COc1ccc(O)c(CC(C)C)c1
T/C (endpoint: mean survival time, dose: 100.0 mg/kg/injection, schedule: Q01DX009 (ip), vehicle: acetone): 100 % of control | T/C (endpoint: mean survival time, dose: 200.0 mg/kg/injection, schedule: Q01DX009 (ip), vehicle: acetone): 104 % of control | T/C (endpoint: mean survival time, dose: 400.0 mg/kg/injection, schedule: Q01DX009 (ip), vehicle: acetone): 96 % of control
